Values quoted from earlier work in patent publication US20240200062A1, “METHODS OF TREATING DUCHENNE MUSCULAR DYSTROPHY USING PEPTIDE-OLIGONUCLEOTIDE CONJUGATES” (PepGen Inc., priority 2021, published 2024).

System: dystrophin
Conditions: in vivo; cited from earlier work

Substance: eteplirsen
- levels of dystrophin restoration: approximately 1 % of normal dystrophin levels
